Assay results reported in the supplement of paper PMC9262897, “Low-cost anti-mycobacterial drug discovery using engineered E. coli” (Nature Communications, 2022).
± gives the standard deviation of the averaged measurements.

Tests used:
[1] = system: E. coli TESEC strain (Mtb target enzyme); assay: growth (OD600 after 10 h); higher = more growth
Method: (§1)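 Chemical-genetic validation profiles: TESEC strains (Mtb Asd or DapB, arabinose-inducible) or the wild-type control grown in a two-dimensional dilution series of drug (µM) and arabinose. Growth is read as OD600 after 10 h in triplicate.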

[2] = system: E. coli wild-type control; assay: growth (OD600 after 10 h); higher = more growth
Method: as §1

CC/C(=C(/CC)c1ccc(O)cc1)c1ccc(O)cc1 [Diethylstilbestrol] (TESEC target enzyme: Mtb Asd)
growth
Conditions | drug 0.7 µM | drug 1.5 µM | drug 3.5 µM | drug 7.8 µM | drug 17.6 µM | drug 39.5 µM | drug 88.9 µM
[1], arabinose 15560 nM | 0.236 ± 0.0089 | 0.214 ± 0.012 | – | – | – | – | –
[1], arabinose 28008 nM | 0.223 ± 0.071 | 0.157 ± 0.057 | – | – | – | – | –
[1], arabinose 50414 nM | 0.238 ± 0.078 | 0.191 ± 0.0078 | – | – | – | – | –
[1], arabinose 90744 nM | 0.252 ± 0.091 | 0.218 ± 0.026 | – | – | – | – | –
[1], arabinose 163340 nM | 0.254 ± 0.047 | 0.227 ± 0.018 | – | – | – | – | –
[1], arabinose 294012 nM | 0.29 ± 0.1 | 0.222 ± 0.017 | – | – | – | – | –
[1], arabinose 529221 nM | 0.207 ± 0.011 | 0.214 ± 0.018 | – | – | – | – | –
[1], arabinose 952599 nM | 0.2 ± 0.011 | 0.228 ± 0.0099 | – | – | – | – | –
[1], arabinose 1714678 nM | 0.2038 ± 0.002 | 0.208 ± 0.026 | – | – | – | – | –
[1], arabinose 3086420 nM | 0.177 ± 0.0086 | 0.202 ± 0.029 | – | – | – | – | –
[1], arabinose 5555556 nM | 0.168 ± 0.053 | 0.198 ± 0.023 | – | – | – | – | –
[1], arabinose 10000000 nM | 0.174 ± 0.013 | 0.184 ± 0.013 | – | – | – | – | –
[2], arabinose 15560 nM | 0.278 ± 0.025 | 0.244 ± 0.02 | 0.211 ± 0.021 | 0.134 ± 0.021 | 0.106 ± 0.062 | 0.077 ± 0.043 | –
[2], arabinose 28008 nM | 0.283 ± 0.023 | 0.225 ± 0.016 | 0.192 ± 0.0041 | 0.208 ± 0.13 | 0.109 ± 0.08 | 0.0887 ± 0.052 | –
[2], arabinose 50414 nM | 0.271 ± 0.046 | 0.23 ± 0.0031 | 0.192 ± 0.008 | 0.149 ± 0.038 | 0.185 ± 0.16 | 0.0973 ± 0.035 | –
[2], arabinose 90744 nM | 0.282 ± 0.023 | 0.238 ± 0.016 | 0.205 ± 0.007 | 0.155 ± 0.033 | 0.0906 ± 0.065 | 0.075 ± 0.027 | –
[2], arabinose 163340 nM | 0.245 ± 0.024 | 0.22 ± 0.013 | 0.207 ± 0.0089 | 0.163 ± 0.052 | 0.11 ± 0.03 | 0.108 ± 0.053 | –
[2], arabinose 294012 nM | 0.224 ± 0.025 | 0.222 ± 0.0093 | 0.201 ± 0.008 | 0.151 ± 0.035 | 0.0517 ± 0.0034 | 0.0476 ± 0.00066 | –
[2], arabinose 529221 nM | 0.189 ± 0.013 | 0.16 ± 0.007 | 0.141 ± 0.015 | 0.123 ± 0.014 | 0.0936 ± 0.042 | 0.139 ± 0.059 | –
[2], arabinose 952599 nM | 0.139 ± 0.03 | 0.112 ± 0.0031 | 0.103 ± 0.013 | 0.132 ± 0.01 | 0.0957 ± 0.02 | 0.0506 ± 0.0019 | 0.108 ± 0.054
[2], arabinose 1714678 nM | 0.118 ± 0.0057 | 0.104 ± 0.0052 | 0.106 ± 0.0022 | 0.112 ± 0.017 | 0.124 ± 0.024 | 0.147 ± 0.1 | 0.119 ± 0.015
[2], arabinose 3086420 nM | 0.119 ± 0.032 | 0.108 ± 0.0038 | 0.114 ± 0.0031 | 0.103 ± 0.0093 | 0.0984 ± 0.038 | 0.114 ± 0.03 | 0.111 ± 0.048
[2], arabinose 5555556 nM | 0.128 ± 0.019 | 0.112 ± 0.0045 | 0.119 ± 0.0052 | 0.119 ± 0.0086 | 0.0951 ± 0.04 | 0.0913 ± 0.011 | 0.0621 ± 0.019
[2], arabinose 10000000 nM | 0.122 ± 0.01 | 0.118 ± 0.015 | 0.1329 ± 0.00094 | 0.118 ± 0.017 | 0.13 ± 0.013 | 0.117 ± 0.049 | –
